From patent publication US20080004302A1, “Novel Compounds” (ASTRAZENECA AB, priority 2006, published 2008)
Counter-ions that a name gives are not always drawn.

Tests used:
human IGF1R = biological target: T1, human IGF1R (Homo sapiens, UniProt P08069); test: Inhibition of insulin-like growth factor-1 receptor phosphorylation in R+ cells; type: cell-based; conditions: 30 nM IGF1, read-out: IGF cell class
T1 construct: expressed in transfected cells; host or cells: R+ cells (R- mouse fibroblasts transfected with human IGF1R)
Description: This immunofluorescence end point cell assay measures the ability of a test compound to reduce the measured levels of IGF1R phosphorylation after IGF1 stimulation in R^+ cells. […] were derived by transfection of R^− mouse fibroblast cells with human IGF1R.
(+5% CO2) incubator for 30 minutes.
Following the compound treatment, the R^+ cells were stimulated with a final concentration of 30 nM IGF1 (Gropep 1M001) for 20 minutes at 37° C. […] Plates were incubated for 1 hour at room temperature. […] Additionally, in-house antibodies raised against phospho […] were also used at a suitable titre determined for each batch.
The plates were incubated at room temperature for one hour. […] After addition of 100 μl/well PBS the plates were sealed with a black seal.
The Green Fluorescent phospho IGF1R -associated signal in each well was measured using an Acumen Explorer HTS Reader (TTP Labtech Ltd., Cambridge). […] The instrument is a laser-scanning fluorescence microplate cytometer, which samples the well at regular intervals and uses threshold algorithms to identify all fluorescent intensities above the solution background without the need to generate and analyse an image. These fluorescent objects can be quantified and provide a measure of the phospho IGF1R levels in cells. Fluorescence dose response data obtained with each compound was exported into a suitable software package (such as Origin) to perform curve fitting analysis. Phospho-IGF1R levels in response to compound treatment versus stimulated and unstimulated controls were expressed as an IC50 value.

FGFR1 kinase = FGFR1 kinase (Homo sapiens, UniProt P11362); test: Kinase assay (using Caliper technology); type: biochemical; conditions: FGFR1 kinase, Caliper; upper bound of bin; read-out: IC50
Description: To determine inhibition of FGFR activity, kinase assays were conducted using Caliper technology.
Kinase activity assays were performed in Greiner 384-well low volume plates, with a total reaction volume of 12ul per well. […] The substrate for each assay was a custom peptide with fluorescent tag (13 amino acids in length) the sequence of which was specific for FGFR1 kinase.
Compounds were serially diluted in 5% (v/v) DMSO, before being added to assay plates.
Assay plates were incubated at room temperature for 1.5 h, before the reaction was stopped with the addition of buffer [comprising: 100 mM HEPES—pH7.5, 0.033% Brij-35, 0.22% Caliper Coating Reagent #3, 88mM EDTA, 5% DMSO]. Stopped assay plates were then read using the Caliper LabChip® LC3000 (which uses microfludics to measure a shift in mobility between fluorescent labelled peptide and the FGFR1 kinase—phosphorylated form of this peptide).

FGFR1 IIIc = biological target: T2, FGFR1 IIIc (Homo sapiens, UniProt P11362); test: Cell based inhibition of transiently expressed FGFR1 IIIc phosphorylation via use of ECHO technology (Cos-1 cells); conditions: Cos-1 cells, phospho-FGFR1, ECHO dosing; upper bound of bin; read-out: IC50
T2 construct: host or cells: Cos-1
Description: This assay is designed to detect inhibitors of transiently expressed FGFR1 phosphorylation by antibody staining of fixed cells detected using ArrayScan technology.
To undertake the assay, Cos-1 cells were harvested at 90-95% confluence for cell transfection. For each 96-well plate, 24μl Lipofectamine 2000 was added to 809 ul OptiMEM and incubated at room temperature for 5 minutes. […] Equal volumes of DNA and Lipofectamine 2000 were combined (DNA: Lipid=1:1.2 ratio) and incubated at room temperature for 20 minutes.
The harvested Cos-1 cells are counted using a coulter counter and diluted further with 1% FCS/DMEM to 2.5×10^5 cells/ml. For each 96-well, 8.33 ml cells were required. […] 70 μl of media was aspirated from the assay plate using the Quadra before the plate was transferred onto the ECHO 550. […] Compound transfer to the assay plate on the ECHO 550 was at concentration ranges 1)10 μM, 2) 3 μM, 3) 1 μM, 4) 0.3 μM, 5) 0.1 μM, 6) […].
The plates were gently tapped to mix compound in with the cell media and left to incubate at 37° C. with 5% CO2 for 1 hour.
Media was removed from the wells using vacuum aspiration; cells were fixed by adding 50 μl of 100% methanol to each well and incubated at room temperature for 20 minutes.
The plates were read on an Arrayscan (Cellomics).

T2 sequence (P11362 22-822): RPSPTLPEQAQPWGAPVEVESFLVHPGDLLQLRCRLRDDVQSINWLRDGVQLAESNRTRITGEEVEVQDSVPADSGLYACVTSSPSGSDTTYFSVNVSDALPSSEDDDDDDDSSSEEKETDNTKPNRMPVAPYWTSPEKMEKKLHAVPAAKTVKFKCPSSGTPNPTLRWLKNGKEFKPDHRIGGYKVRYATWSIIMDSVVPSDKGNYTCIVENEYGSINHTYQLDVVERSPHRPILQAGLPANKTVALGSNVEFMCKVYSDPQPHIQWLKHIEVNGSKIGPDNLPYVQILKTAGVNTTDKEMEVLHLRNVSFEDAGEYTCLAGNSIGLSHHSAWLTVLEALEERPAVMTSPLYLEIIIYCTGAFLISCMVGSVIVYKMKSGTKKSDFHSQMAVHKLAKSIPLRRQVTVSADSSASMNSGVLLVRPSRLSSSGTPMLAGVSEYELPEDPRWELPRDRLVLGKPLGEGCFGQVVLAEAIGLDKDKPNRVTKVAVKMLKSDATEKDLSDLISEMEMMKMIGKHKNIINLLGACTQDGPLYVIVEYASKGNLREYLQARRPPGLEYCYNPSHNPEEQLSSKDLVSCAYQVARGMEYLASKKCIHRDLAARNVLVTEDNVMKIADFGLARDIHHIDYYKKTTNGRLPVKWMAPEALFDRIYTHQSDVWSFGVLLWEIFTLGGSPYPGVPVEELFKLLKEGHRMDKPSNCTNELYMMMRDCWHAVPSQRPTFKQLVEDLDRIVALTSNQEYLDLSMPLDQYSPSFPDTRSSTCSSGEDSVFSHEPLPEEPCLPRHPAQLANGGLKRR
Chain of FGFR1 kinase (P11362 22-822): as above
T1 sequence (P08069 31-1367): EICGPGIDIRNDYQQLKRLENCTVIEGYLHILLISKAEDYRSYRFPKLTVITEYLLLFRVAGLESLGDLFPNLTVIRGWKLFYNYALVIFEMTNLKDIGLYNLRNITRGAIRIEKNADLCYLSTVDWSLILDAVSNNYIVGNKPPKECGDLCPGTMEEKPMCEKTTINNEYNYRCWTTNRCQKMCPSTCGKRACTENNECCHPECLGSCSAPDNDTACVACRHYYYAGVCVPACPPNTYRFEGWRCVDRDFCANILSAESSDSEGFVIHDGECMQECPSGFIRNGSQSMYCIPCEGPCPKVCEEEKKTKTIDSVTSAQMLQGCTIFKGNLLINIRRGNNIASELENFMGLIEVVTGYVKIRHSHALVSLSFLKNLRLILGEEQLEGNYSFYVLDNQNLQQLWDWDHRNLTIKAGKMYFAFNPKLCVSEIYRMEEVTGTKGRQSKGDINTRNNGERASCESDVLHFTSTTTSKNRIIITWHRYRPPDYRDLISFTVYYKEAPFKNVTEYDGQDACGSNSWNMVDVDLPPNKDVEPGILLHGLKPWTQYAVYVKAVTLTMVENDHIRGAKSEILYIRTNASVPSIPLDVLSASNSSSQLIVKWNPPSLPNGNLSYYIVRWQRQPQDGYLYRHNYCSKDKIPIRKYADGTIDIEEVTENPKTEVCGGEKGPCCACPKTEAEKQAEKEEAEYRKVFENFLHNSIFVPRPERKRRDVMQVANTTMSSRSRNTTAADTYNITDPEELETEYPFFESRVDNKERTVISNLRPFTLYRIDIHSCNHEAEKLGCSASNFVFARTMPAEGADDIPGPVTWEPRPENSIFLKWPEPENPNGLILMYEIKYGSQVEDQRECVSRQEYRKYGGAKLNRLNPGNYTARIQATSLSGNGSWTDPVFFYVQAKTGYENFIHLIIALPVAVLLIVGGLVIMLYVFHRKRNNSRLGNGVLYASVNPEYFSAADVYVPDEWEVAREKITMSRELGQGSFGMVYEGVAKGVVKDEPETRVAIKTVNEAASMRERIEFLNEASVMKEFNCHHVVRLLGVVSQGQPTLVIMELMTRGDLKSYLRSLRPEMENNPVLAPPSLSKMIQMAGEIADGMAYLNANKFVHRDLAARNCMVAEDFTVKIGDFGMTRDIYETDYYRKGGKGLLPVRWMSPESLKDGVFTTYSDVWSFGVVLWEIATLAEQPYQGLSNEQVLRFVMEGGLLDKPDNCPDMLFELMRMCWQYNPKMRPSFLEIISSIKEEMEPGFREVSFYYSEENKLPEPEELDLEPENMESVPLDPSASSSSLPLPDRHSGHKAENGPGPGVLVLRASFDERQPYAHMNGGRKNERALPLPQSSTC

COCCCc1cc(Nc2ccnc(NCc3cc(C4CC4)no3)n2)n[nH]1 [Example 18, N-[(3-cyclopropyl-1,2-oxazol-5-yl)methyl]-N′-[5-(3-methoxypropyl)-2H-pyrazol-3-yl]pyrimidine-2,4-diamine]
IC50 (human IGF1R): 1000 to 10000 nM

COCC(C)Oc1cc(Nc2ccnc(NCc3cc(C)no3)n2)n[nH]1 (centres unmarked) [Example 75, N′-[5-(1-methoxypropan-2-yloxy)-1H-pyrazol-3-yl]-N-[(3-methyl-1,2-oxazol-5-yl)methyl]pyrimidine-2,4-diamine]
IC50 (human IGF1R): > 10000 nM | IC50 (FGFR1 kinase): < 10000 nM

CCOc1ccc(COc2cc(Nc3ccnc(NCc4cc(C)no4)n3)n[nH]2)cc1OC [Example 99, N′-[5-[(4-ethoxy-3-methoxy-phenyl)methoxy]-1H-pyrazol-3-yl]-N-[(3-methyl1,2-oxazol-5-yl)methyl]pyrimidine-2,4-diamine]
IC50 (human IGF1R): > 10000 nM | IC50 (FGFR1 kinase): < 10000 nM

Cc1cc(CNc2nccc(Nc3cc(CCc4cccc(OC(C)C)c4)[nH]n3)n2)on1 [Example 122, N-[(3-methyl-1,2-oxazol-5-yl)methyl]-N′-[5-[2-(3-propan-2-yloxyphenyl)ethyl]-1H-pyrazol-3-yl]pyrimidine-2,4-diamine]
IC50 (FGFR1 kinase): < 1000 nM | IC50 (FGFR1 IIIc): < 1000 nM

NC(=O)c1cc(CNc2nccc(Nc3cc(CCc4cccc(OCC5CC5)c4)[nH]n3)n2)on1 [Example 123, 5-[[[4-[[5-[2-[3-(cyclopropylmethoxy)phenyl]ethyl]-1H-pyrazol-3-yl]amino]pyrimidin-2-yl]amino]methyl]-1,2-oxazole-3-carboxamide]
IC50 (FGFR1 kinase): < 1000 nM | IC50 (FGFR1 IIIc): < 10000 nM

COc1cc(CCc2cc(Nc3ccnc(NCc4cc(C)no4)n3)n[nH]2)cc(OC)n1 [Example 124, N′-[5-[2-(2,6-dimethoxypyridin-4-yl)ethyl]-1H-pyrazol-3-yl]-N-[(3-methyl-1,2-oxazol-5-yl)methyl]pyrimidine-2,4-diamine]
IC50 (FGFR1 kinase): < 200 nM | IC50 (FGFR1 IIIc): < 200 nM

Cc1cc(CNc2nccc(Nc3cc(CCc4cccc(N)c4)[nH]n3)n2)on1 [Example 125, N′-[5-[2-(3-aminophenyl)ethyl]-1H-pyrazol-3-yl]-N-[(3-methyl-1,2-oxazol-5-yl)methyl]pyrimidine-2,4-diamine]
IC50 (FGFR1 kinase): < 200 nM | IC50 (FGFR1 IIIc): < 1000 nM

COc1cc(Cl)cc(CCc2cc(Nc3ccnc(NCc4cc(C(N)=O)no4)n3)[nH]n2)c1 [Example 126, 5-[[[4-[[5-[2-(3-chloro-5-methoxy-phenyl)ethyl]-2H-pyrazol-3-yl]amino]pyrimidin-2-yl]amino]methyl]-1,2-oxazole-3-carboxamide]
IC50 (FGFR1 kinase): < 200 nM | IC50 (FGFR1 IIIc): < 200 nM

COc1cncc(CCc2cc(Nc3ccnc(NCc4cc(CN(C)C)no4)n3)n[nH]2)c1 [Example 127, N-[[3-(dimethylaminomethyl)-1,2-oxazol-5-yl]methyl]-N′-[5-[2-(5-methoxypyridin-3-yl)ethyl]-1H-pyrazol-3-yl]pyrimidine-2,4-diamine]
IC50 (FGFR1 kinase): < 1000 nM | IC50 (FGFR1 IIIc): < 30000 nM

COc1ccc(CCc2cc(Nc3ccnc(NCc4cc(C)no4)n3)n[nH]2)s1 [Example 129, N′-[5-[2-(5-methoxythiophen-2-yl)ethyl]-1H-pyrazol-3-yl]-N-[(3-methyl-1,2-oxazol-5-yl)methyl]pyrimidine-2,4-diamine]
IC50 (FGFR1 kinase): < 10000 nM | IC50 (FGFR1 IIIc): < 1000 nM

COc1ncc(CCc2cc(Nc3ccnc(NCc4cc(C)no4)n3)n[nH]2)s1 [Example 130, N′-[5-[2-(2-methoxy-1,3-thiazol-5-yl)ethyl]-1H-pyrazol-3-yl]-N-[(3-methyl-1,2-oxazol-5-yl)methyl]pyrimidine-2,4-diamine]
IC50 (FGFR1 kinase): < 1000 nM | IC50 (FGFR1 IIIc): < 10000 nM

COc1cc(C)cc(COc2cc(Nc3ccnc(NCc4cc(C)no4)n3)n[nH]2)c1 [Example 131, N′-[5-[(3-methoxy-5-methyl-phenyl)methoxy]-1H-pyrazol-3-yl]-N-[(3-methyl-1,2-oxazol-5-yl)methyl]pyrimidine-2,4-diamine]
IC50 (FGFR1 kinase): < 200 nM | IC50 (FGFR1 IIIc): < 200 nM

CNC(=O)c1cc(CCc2cc(Nc3ccnc(NCc4cc(C)no4)n3)n[nH]2)cc(OC)c1 [Example 132, 3-Methoxy-N-methyl-5-[2-[5-[[2-[(3-methyl-1,2-oxazol-5-yl)methylamino]pyrimidin-4-yl]amino]-1H-pyrazol-3-yl]ethyl]benzamide]
IC50 (FGFR1 kinase): < 200 nM | IC50 (FGFR1 IIIc): < 1000 nM

Cc1cc(CNc2nccc(Nc3cc(CCc4cccc(Oc5ncccn5)c4)[nH]n3)n2)on1 [Example 133, N-[(3-methyl-1,2-oxazol-5-yl)methyl]-N′-[5-[2-(3-pyrimidin-2-yloxyphenyl)ethyl]-1H-pyrazol-3-yl]pyrimidine-2,4-diamine hydrochloride]
IC50 (FGFR1 kinase): < 200 nM | IC50 (FGFR1 IIIc): < 10000 nM

Cc1cc(CNc2nccc(Nc3cc(CCc4cccc(=O)[nH]4)[nH]n3)n2)on1 [Example 134, 6-[2-[5-[[2-[(3-methyl-1,2-oxazol-5-yl)methylamino]pyrimidin-4-yl]amino]-2H-pyrazol-3-yl]ethyl]-1H-pyridin-2-one dihydrochloride]
IC50 (FGFR1 kinase): < 10000 nM | IC50 (FGFR1 IIIc): < 30000 nM

COc1cc(COc2cc(Nc3ccnc(NCc4cc(C)no4)n3)n[nH]2)c(F)cn1 [Example 135, N′-[5-[(5-fluoro-2-methoxy-pyridin-4-yl)methoxy]-1H-pyrazol-3-yl]-N-[(3-methyl-1,2-oxazol-5-yl)methyl]pyrimidine-2,4-diamine]
IC50 (FGFR1 kinase): < 200 nM | IC50 (FGFR1 IIIc): < 1000 nM

COc1cc(CCc2cc(Nc3ccnc(NCc4cc(CN(C)C)no4)n3)n[nH]2)c(F)cn1 [Example 136, N-[[3-(dimethylaminomethyl)-1,2-oxazol-5-yl]methyl]-N′-[5-[2-(5-fluoro-2-methoxy-pyridin-4-yl)ethyl]-1H-pyrazol-3-yl]pyrimidine-2,4-diamine]
IC50 (FGFR1 kinase): < 1000 nM | IC50 (FGFR1 IIIc): < 10000 nM

COc1ccnc(COc2cc(Nc3ccnc(NCc4cc(C)no4)n3)n[nH]2)c1 [Example 137, N′-[5-[(4-methoxypyridin-2-yl)methoxy]-1H-pyrazol-3-yl]-N-[(3-methyl-1,2-oxazol-5-yl)methyl]pyrimidine-2,4-diamine]
IC50 (FGFR1 kinase): < 1000 nM | IC50 (FGFR1 IIIc): < 30000 nM

COc1cncc(CCc2cc(Nc3ccnc(NCc4cc(C)no4)n3)n[nH]2)c1 [Example 138, N′-[5-[2-(5-methoxypyridin-3-yl)ethyl]-1H-pyrazol-3-yl]-N-[(3-methyl-1,2-oxazol-5-yl)methyl]pyrimidine-2,4-diamine]
IC50 (FGFR1 kinase): < 1000 nM | IC50 (FGFR1 IIIc): < 10000 nM

COc1cc(CCc2cc(Nc3ccnc(NCc4cc(C)no4)n3)n[nH]2)cc(NC(C)=O)c1 [Example 139, N-[3-methoxy-5-[2-[5-[[2-[(3-methyl-1,2-oxazol-5-yl)methylamino]pyrimidin-4-yl]amino]-2H-pyrazol-3-yl]ethyl]phenyl]acetamide]
IC50 (FGFR1 IIIc): < 30000 nM

CC(C)Oc1cccc(CCc2cc(Nc3ccnc(NCc4cc(C(N)=O)no4)n3)n[nH]2)c1 [Example 140, 5-[[[4-[[5-[2-(3-propan-2-yloxyphenyl)ethyl]-1H-pyrazol-3-yl]amino]pyrimidin-2-yl]amino]methyl]-1,2-oxazole-3-carboxamide]
IC50 (FGFR1 IIIc): < 10000 nM

CNC(=O)c1cccc(CCc2cc(Nc3ccnc(NCc4cc(C)no4)n3)n[nH]2)c1 [Example 141, N-methyl-3-[2-[5-[[2-[(3-methyl-1,2-oxazol-5-yl)methylamino]pyrimidin-4-yl]amino]-1H-pyrazol-3-yl]ethyl]benzamide]
IC50 (FGFR1 kinase): < 200 nM | IC50 (FGFR1 IIIc): < 1000 nM
